Results reported in patent US20230295134A1, “USE OF PHENYLQUINOLINONE DERIVATIVE OR FLAVONOID DERIVATIVE FOR TREATING NEUROPATHIC PAIN” (HANGZHOU BIO-SINCERITY PHARMA-TECH CO., LTD., priority 2019, published 2023).

Assays:
[1] = test system: OXA neuropathic pain model rats; assay: Mechanical withdrawal threshold in Oxaliplatin chemotherapy-induced neuropathic pain model; format: in vivo, SD rats; details: for mechanical withdrawal threshold vs Pregabalin: 2nd-4th hour after administration
Protocol: Male SD rats (200-250 g) were injected 4 mg/kg of Oxaliplatin by intraperitoneal on day 1, 2, 8, 9, 15, 16, 22 and 23 to establish chemotherapy-induced neuropathic pain model. On day 24, the mechanical withdrawal threshold of rats in group normal and model were measured with Electric Von Frey (IITC-2391) to choose rats with stable mechanical withdrawal threshold, which were randomly divided into 5 groups: 1) model; 2) 30 mg/kg Pregabalin; 3) 9 mg/kg Compound II-4; 4) 3 mg/kg Compound II-4; and 5) 1 mg/kg Compound II-4. Group 2 -5 were given corresponding medicines orally with the dose of 1 ml/100g, while the Group model and normal were given saline of the same volume with the same method. Mechanical withdrawal threshold was measured before administration and 1, 2, 4, 6h after single administration, and the results were shown in FIG. 5.

CCI model rats [2] = assay: Mechanical withdrawal threshold in chronic constrictive injury (CCI) model, single dose; format: in vivo, SD rats
Excerpt: Male SD rats, weighting 200-250 g, were used to establish chronic constrictive injury (CCI) model. The common sciatic nerve was exposed at the level of the middle of the thigh, and 4 ligatures (4.0 chromic gut, 0.15 mm) were tied loosely with about 1-2 mm spacing to the position proximal to the sciatic's trifurcation. The rats in sham group were subjected to the same operative procedure as the CCI model but without nerve ligation. On the seventh day after operation, mechanical withdrawal threshold was measured in CCI model rats with Electric Von Frey (IITC-2391) for 2 days to choose rats with stable mechanical withdrawal threshold, which were divided into 5 groups: 1) model; 2) 50 mg/kg Gabapentin; 3) 9 mg/kg Compound I-4; 4) 3 mg/kg Compound I-4; and 5) 1 mg/kg Compound I-4. Group 2 -5 were given corresponding medicines orally with the dose of 1 ml/100 g, while the Group model and normal were given saline of the same volume with the same method. Mechanical withdrawal threshold was measured before administration and 1, 2, 4, 6 h after intragastric administration, and the results were shown in FIG. 3.

[3] = test system: diabetic neuropathic pain model; assay: Heat pain threshold in STZ-induced diabetic neuropathic pain model; format: in vivo, SD rats; details: STZ rats; for heat pain threshold of diabetic neuropathic pain model: single dose PO, I-6 1 mg/kg, Gabapentin 50 mg/kg
Protocol: Male SD rats (200-250 g) with normal blood sugar were fasted but had free access to water for 12 hours. The diabetes model was induced by intraperitoneal injection of 60 mg/kg streptozotocin (STZ), and was examined by 2-hour postprandial sugar level on day 7 after injection, which should be higher than 16 mmol/L. The rats in normal group were given an equal volume of citric acid-sodium citrate buffer (pH 4.2). On day 14 after injection, the heat pain threshold of rats in diabetes model or normal group were measured with Plantar Test Apparatus (BME-410) to examine the success of diabetic neuropathic pain model. The rats in diabetic neuropathic pain model were divided into 3 groups: 1) model; 2) 50 mg/kg Gabapentin; and 3) 1 mg/kg Compound I-6. Group 2 and 3 were given corresponding medicines orally with the dose of 1 ml/100 g, while the Group model and normal were given saline of the same volume with the same method. Heat pain threshold was measured before administration and 1, 2, 4, 6 h after administration, and the results were shown in FIG. 4.

CCI model rats [4] = assay: Mechanical withdrawal threshold in CCI model, 5 days repeated administration; format: in vivo, SD rats
Excerpt: Male SD rats, weighting 200-250 g, were used to establish CCI model. The common sciatic nerve was exposed at the level of the middle of the thigh, and 4 ligatures (4.0 chromic gut, 0.15 mm) were tied loosely with about 1-2 mm spacing to the position proximal to the sciatic's trifurcation, then the wound was closed. The rats in sham group were subjected to the same operative procedure as the CCI model but without nerve ligation. On the seventh day after operation, mechanical withdrawal threshold was measured in CCI model rats with Electric Von Frey (IITC-2391) for 2 days to choose rats with stable mechanical withdrawal threshold, which were divided into 5 groups: 1) model; 2) 50 mg/kg Gabapentin; 3) 3 mg/kg Compound I-10; 4) 1 mg/kg Compound I-10; and 5) 0.3 mg/kg Compound I-10. Group 2-5 were given corresponding medicines orally with the dose of 1 ml/100 g for 5 days, while the Group model and normal were given saline of the same volume with the same method. Mechanical withdrawal threshold was measured before and 2 h after intragastric administration, and the results were shown in FIG. 6.

PSL model rats = assay: Heat pain threshold in partial sciatic nerve ligation (PSL) model; format: in vivo, SD rats; details: for heat pain threshold vs Pregabalin group: comparator 30 mg/kg Pregabalin
Protocol: Male SD rats, weighting 200-250 g, were used to establish partial sciatic nerve ligation (PSL) model. The rats were subjected to ligation of the right sciatic nerve at high-tight level, so that ⅓-½ thickness of the sciatic nerve was trapped in the ligature, and then the wound was closed. The rats in sham group were subjected to the same operative procedure as the PSL model but without nerve ligation. On the sixth day after operation, heat pain threshold was measured in PSL model rats with Plantar Test Apparatus (BME-410) for 2 days to choose rats with stable heat pain threshold, which were randomly divided into 5 groups: 1) model; 2) 30 mg/kg Pregabalin; 3) 3 mg/kg Compound I-6; 4) 1 mg/kg Compound I-6; and 5) 0.3 mg/kg Compound I-6. Group 2-5 were given corresponding medicines orally with the dose of 1 ml/100 g, while the Group model and normal were given saline of the same volume with the same method. Heat pain threshold was measured before administration and 1, 2, 4, 6 h after intragastric administration, and the results were shown in FIG. 1.
Male SD rats, weighting 200-250g, were used to establish partial sciatic nerve ligation (PSL) model. The rats were subjected to ligation of the right sciatic nerve at high-tight level, so that ⅓-½ thickness of the sciatic nerve was trapped in the ligature, and then the wound was closed. The rats in sham group were subjected to the same operative procedure as the PSL model but without nerve ligation. On the sixth day after operation, heat pain threshold was measured in PSL model rats with Plantar Test Apparatus (BME-410) for 2 days to choose rats with stable heat pain threshold, which were randomly divided into 7 groups: 1) model; 2) 50 mg/kg Gabapentin; 3) 100 mg/kg Carbamazepine; 4) 10 mg/kg Amitriptyline; 5) 1 mg/kg Compound I-4; 6) 1 mg/kg Compound I-6; and 7) 1 mg/kg Compound II-4. Group 2 -7 were given corresponding medicines orally with the dose of 1 ml/100 g, while the Group model and normal were given saline of the same volume with the same method. Heat pain threshold was measured before and 1, 2, 4, 6h after intragastric administration, and the results were shown in FIG. 2.

[5] = In vivo pharmacokinetic studies (bioavailability); details: SD rats
Protocol: The in vivo pharmacokinetic studies of Compound I-6 were conducted in SD rats (n=3).

[6] = Security: intragastric administration of different dosages in mice; format: in vivo; details: mouse, in vivo, po; ICR mice; intragastric administration; read-out: half lethal dose (LD50)
ICR mice = assay: as above; format: in vivo
[7] = 1 mg/kg PO single dose, since 1 hour after administration
[8] = 1 mg/kg PO, comparator 50 mg/kg Gabapentin

CC(C)C[C@H](CN)CC(=O)O [Pregabalin, reference compound]
onset of action on mechanical withdrawal threshold ([1]; 30 mg/kg PO): rapid action

NCC1(CC(=O)O)CCCCC1 [Gabapentin, reference compound]
mechanical withdrawal threshold vs model group (CCI model rats [2]; 50 mg/kg PO single dose): only remained significantly higher than model group during 1st-2nd hour | heat pain threshold of diabetic neuropathic pain model [3]: could improve the heat pain threshold | mechanical withdrawal threshold vs model group (CCI model rats [4]; 50 mg/kg PO for 5 days): only kept the significant difference during 2nd-5th day

COc1c(-c2ccc(OCCCN3CCCCC3)cc2)oc2ccccc2c1=O [Compound II-4, 3-Methoxy-2-(4-(3-(Piperidin-1-Yl)Propoxy)Phenyl)-4H-Chromen-4-One]
heat pain threshold vs model group (PSL model rats; [7]): significantly higher than model group | mechanical withdrawal threshold vs model group ([1]; 1 mg/kg PO, 1st-2nd hour after administration): significantly higher (P<0.01) than model group | mechanical withdrawal threshold vs Pregabalin ([1]; 3 mg/kg PO): significantly higher (P<0.05) than 30 mg/kg Pregabalin | mechanical withdrawal threshold vs Pregabalin ([1]; 9 mg/kg PO): significantly higher (P<0.05) than 30 mg/kg Pregabalin | mechanical withdrawal threshold, relation to dose ([1]; single dose 1, 3 or 9 mg/kg PO): dosage-dependent increase | improvement of mechanical withdrawal threshold compared with Pregabalin ([1]; single dose PO): more effectively and longer

COc1c(-c2ccc(OCCCN3CCCCC3)cc2)n(C)c2ccccc2c1=O [Compound I-10, 3-Methoxy-1-Methyl-2-(4-(3-(Piperidin-1-Yl)Propoxy)Phenyl)Quinolin-4(1H)-One]
mechanical withdrawal threshold vs model group (CCI model rats [4]; 1 mg/kg PO for 5 days, 1st-5th day after administration): significantly higher (P<0.01) than model group | dose-dependency and stability of efficacy (CCI model rats [4]; 5 days PO, compared with 50 mg/kg Gabapentin): better dose-dependency and stability of efficacy compared to Gabapentin | mechanical withdrawal threshold, relation to dose (CCI model rats [4]; repeated administration 5 days, 0.3, 1 or 3 mg/kg PO): increased in a dose-dependent manner

CCn1c(-c2ccc(OCCCN3CCCCC3)cc2)cc(=O)c2ccccc21 [Compound I-6, 1-Ethyl-2-(4-(3-(Piperidin-1-Yl)Propoxy)Phenyl)Quinolin-4(1H)-One]
heat pain threshold vs model group (PSL model rats; 0.3 mg/kg PO, 2nd hour after administration): significantly higher (P<0.01) than model group | heat pain threshold vs model group (PSL model rats; [7]): significantly higher than model group | heat pain threshold vs Pregabalin group (PSL model rats; 1.0 mg/kg PO): raised to be compared to 30 mg/kg Pregabalin group | heat pain threshold vs sham group (PSL model rats; 3.0 mg/kg PO, 1st-2nd hour after administration): further improved to the level equal to sham group | heat pain threshold vs Pregabalin group (PSL model rats; 3.0 mg/kg PO, 1st-2nd hour): better than Pregabalin group | heat pain threshold, relation to dose (PSL model rats; single dose 0.3, 1 or 3 mg/kg PO): increased in a dose-dependent manner | effective time vs Gabapentin [3, 8]: longer effective time | heat pain threshold vs Gabapentin [3, 8]: significantly higher heat pain threshold (P<0.01) | heat pain threshold of diabetic neuropathic pain model [3]: could improve the heat pain threshold | time at which peak plasma concentrations occur ([5]; P.O 10.0 mg/kg): 2.00 ± 1.73 h | half-life ([5]; Sprague-Dawley (SD), rat, plasma, iv, 1 mg/kg, I.V 1.00mg/kg): 6 ± 1.43 h | bioavailability ([5]; Sprague-Dawley (SD), rat, plasma, po, 10 mg/kg, read-out: absolute bioavailability): 51.3% | half-life ([5]; Sprague-Dawley (SD), rat, plasma, po, P.O 10.0 mg/kg): 3.79 ± 0.12 h | LD50 [6]: > 1020 mg/kg | signs after intragastric administration (ICR mice; 64 mg/kg): no abnormal signs | signs after intragastric administration (ICR mice; 256 mg/kg): one of the mice given a dose of 256 mg/kg suffered convulsions but recovered on the second day | signs after intragastric administration (ICR mice; 1024 mg/kg): one of the mice given a dose of 1024 mg/kg suffered convulsions and finally died on the second day

Cn1c(-c2ccc(OCCCN3CCCCC3)cc2)cc(=O)c2ccccc21 [Compound I-4, 1-Methyl-2-(4-(3-(Piperidin-1-Yl)Propoxy)Phenyl)Quinolin-4(1H)-One]
heat pain threshold vs model group (PSL model rats; [7]): significantly higher than model group | mechanical withdrawal threshold vs model group (CCI model rats [2]; 3 mg/kg PO, 1st-4th hour after administration): significantly higher (P<0.01) than model group | mechanical withdrawal threshold, relation to dose (CCI model rats [2]; single dose 1, 3 or 9 mg/kg PO): dose-dependent increase | effective time (CCI model rats [2]; single dose PO, compared with 50 mg/kg Gabapentin): longer than Gabapentin
